In patent US20260083865A1, “PROSTATE SPECIFIC MEMBRANE ANTIGEN (PSMA) LIGANDS AND USE THEREOF” (priority 2022, published 2026):
“Also recorded” adds a separate entry of the source. Numbered stars: 1 amine (or outer) side, 2 acyl side, 3 side chain; on linkers, the order of the positions; unused ones are H or OH. Bridge positions count the residues as written; N and C are the ends. Square brackets hold non-standard residues; d marks the D form. Peptide text beside a SMILES is read from it. * marks the point of attachment. DOTA = O=C(O)CN1CCN(CC(=O)O)CCN(CC(=O)*)CCN(CC(=O)O)CC1; Phe(4-Cl) = N[C@@H](Cc1ccc(Cl)cc1)C(=O)O; Arg(Me) = CNC(=N)NCCC[C@H](N)C(=O)O; X1 = O=C(CC1CCN([*:1])CC1)[*:2]; Lys(Me) = CNCCCC[C@H](N)C(=O)O; Tle = CC(C)(C)[C@H](N)C(=O)O; Aib = CC(C)(N)C(=O)O

System: PSMA-expressing ST1273 tumors
Assay: Efficacy study in mice with PSMA-expressing ST1273 tumors (tumor volume)
Format: in vivo
Source text: The efficacy of ^177Lu-PSM-0194 (PSM-0194 labeled with radioactive Lutetium-177) was investigated in the PDX tumor model ST1273. […] The ST1273 PDX model was developed at XenoSTART (San Antonio, Texas, USA) and PSMA expression was confirmed by immunohistochemistry.
ST1273 tumor fragments were transplanted subcutaneously at the right flank of female NMRI nu/nu mice. In brief, the parent animals with ST1273 PDX tumors for transplantation were euthanized by cervical dislocation. The tumors were resected and trimmed to remove the connective tissues. The tumors were put in a Petri dish with PBS and cut with a scalpel into pieces of approximately 5×5×5 mm. Recipient mice were anesthetized (isoflurane, 1-3% in ambient air supplemented with 100% O2) and an incision cut in the skin on the back. Room was made for the tumor between the muscle and skin with forceps. The tumor pieces were dipped in PBS before being placed under the skin with forceps. The incision was closed with a 7 mm wound clip. Another incision was cut in the skin on the back, where a testosterone rod was inserted subcutaneously with forceps (PreclinApps, Testosterone MedRod 75 μg/day, drug release duration 100 days). The incision was closed with non-absorbable prolene 5-0 sutures and animals were chipped for identification and allowed to recover from anesthesia. Tumor growth and animal weight were measured twice a week starting 7 days after inoculation. Tumor size was measured by caliper and the volume was estimated using the following formula 0.52×(length×width^2).
6-7 weeks after inoculation, three mice with ST1273 PDX tumors were dosed with ^177Lu-PSM-0194 and were subjected to SPECT/computed tomography scans. Tumor size measurement was continued for 42 days after dosing. In brief, PSM-0194 was labeled with radioactive Lutetium-177 with a molar activity of 30 MBq/nmol. An activity dose of 30 MBq per mouse was injected intravenously. The mice injected with ^177Lu—PSM-0194 underwent SPECT/computed tomography scans at 4, 24, and 72 hours p.i. to evaluate the distribution of ^177Lu-PSM-0194 in different tissues. Regions of interest (ROI) were drawn based on computed tomography images for the tumor and following organs: heart (estimate of blood), kidney (left), kidney (right), and tail. Uptake of ^177Lu-PSM-0194 (% ID/g, decay-corrected) in the corresponding ROI was determined by quantitative imaging analysis. […] Highest uptake in non-tumor organs was found in the kidneys with a favorable tumor-to-kidney ratio of 3.3-3.4.
The tumor size measurements were continued for 42 days after dosing. The effect of therapy ^177Lu—PSM-0194 on the tumor volume was evaluated for each individual mouse. […] Tumor volume continued declining to a nadir on day 20, with a mean tumor volume (MTV) of 16±16 mm^3 (mean SEM). […] For the calculation of relative volumes, the tumor volumes on the day of dosing (day 0) were set to 100%.

SMILES: CNCCCC[C@@H]1NC(=O)[C@@H](NC(=O)[C@H](Cc2ccc(Cl)cc2)NC(=O)C(C)(C)NC(=O)[C@@H](NC(=O)CC2CCN(C(=O)CN3CCN(CC(=O)O)CCN(CC(=O)O)CCN(CC(=O)O)CC3)CC2)[C@@H](C)O)CSSC[C@@H](C(=O)N[C@H](C(=O)N[C@H](C(N)=O)[C@@H](C)O)C(C)(C)C)NC(=O)[C@H](CC(N)=O)NC(=O)C(C)(C)NC(=O)[C@H](CCCNC(=N)NC)NC1=O [^177Lu-PSM-0194, metal not drawn] ({DOTA}-[X1]T[Aib][Phe(4-Cl)]C[Lys(Me)][Arg(Me)][Aib]NC[Tle]T-NH2; disulfide 5-10)
- effect of therapy on the tumor volume (ST1273 PDX mice, 30 MBq i.v., followed 42 days after dosing): reduction of the tumor volumes; also recorded: strong tumor regression and sustained tumor suppression
- start of re-growth of the tumor (animal M10, 30 MBq i.v.): 23 days
- tumor volume (animal M10, day 42 after dosing, 30 MBq i.v.): 407 mm^3
- mean tumor volume (MTV) at nadir (day 20 after dosing, 30 MBq i.v., three mice, mean SEM): 16±16 mm^3
- Tumor volumes (mouse M9, study day 2): 390 mm^3
- Relative tumor volume (mouse M9, study day 2, day 0 = 100%): 112%
- Tumor volumes (mouse M9, study day 6): 124 mm^3
- Relative tumor volume (mouse M9, study day 6, day 0 = 100%): 36%
- Tumor volumes (mouse M9, study day 9): 65 mm^3
- Relative tumor volume (mouse M9, study day 9, day 0 = 100%): 19%
- Tumor volumes (mouse M9, study day 13): 31 mm^3
- Relative tumor volume (mouse M9, study day 13, day 0 = 100%): 9.0%
- Tumor volumes (mouse M9, study day 16): 43 mm^3
- Relative tumor volume (mouse M9, study day 16, day 0 = 100%): 12%
- Tumor volumes (mouse M9, study day 20): 0 mm^3
- Relative tumor volume (mouse M9, study day 20, day 0 = 100%): 0.0%
- Tumor volumes (mouse M9, study day 23): 0 mm^3
- Relative tumor volume (mouse M9, study day 23, day 0 = 100%): 0.0%
- Tumor volumes (mouse M9, study day 27): 0 mm^3
- Relative tumor volume (mouse M9, study day 27, day 0 = 100%): 0.0%
- Tumor volumes (mouse M9, study day 30): 0 mm^3
- Relative tumor volume (mouse M9, study day 30, day 0 = 100%): 0.0%
- Tumor volumes (mouse M9, study day 34): 0 mm^3
- Relative tumor volume (mouse M9, study day 34, day 0 = 100%): 0.0%
- Tumor volumes (mouse M9, study day 37): 0 mm^3
- Relative tumor volume (mouse M9, study day 37, day 0 = 100%): 0.0%
- Tumor volumes (mouse M9, study day 41): 0 mm^3
- Relative tumor volume (mouse M9, study day 41, day 0 = 100%): 0.0%
- Tumor volumes (mouse M9, study day 42): 0 mm^3
- Relative tumor volume (mouse M9, study day 42, day 0 = 100%): 0.0%
- Tumor volumes (mouse M10, study day 2): 633 mm^3
- Relative tumor volume (mouse M10, study day 2, day 0 = 100%): 134%
- Tumor volumes (mouse M10, study day 6): 372 mm^3
- Relative tumor volume (mouse M10, study day 6, day 0 = 100%): 79%
- Tumor volumes (mouse M10, study day 9): 346 mm^3
- Relative tumor volume (mouse M10, study day 9, day 0 = 100%): 73%
- Tumor volumes (mouse M10, study day 13): 242 mm^3
- Relative tumor volume (mouse M10, study day 13, day 0 = 100%): 51%
- Tumor volumes (mouse M10, study day 16): 94 mm^3
- Relative tumor volume (mouse M10, study day 16, day 0 = 100%): 20%
- Tumor volumes (mouse M10, study day 20): 49 mm^3
- Relative tumor volume (mouse M10, study day 20, day 0 = 100%): 10%
- Tumor volumes (mouse M10, study day 23): 66 mm^3
- Relative tumor volume (mouse M10, study day 23, day 0 = 100%): 14%
- Tumor volumes (mouse M10, study day 27): 113 mm^3
- Relative tumor volume (mouse M10, study day 27, day 0 = 100%): 24%
- Tumor volumes (mouse M10, study day 30): 114 mm^3
- Relative tumor volume (mouse M10, study day 30, day 0 = 100%): 24%
- Tumor volumes (mouse M10, study day 34): 172 mm^3
- Relative tumor volume (mouse M10, study day 34, day 0 = 100%): 36%
- Tumor volumes (mouse M10, study day 37): 289 mm^3
- Relative tumor volume (mouse M10, study day 37, day 0 = 100%): 61%
- Tumor volumes (mouse M10, study day 41): 608 mm^3
- Relative tumor volume (mouse M10, study day 41, day 0 = 100%): 129%
- Tumor volumes (mouse M10, study day 42): 607 mm^3
- Relative tumor volume (mouse M10, study day 42, day 0 = 100%): 129%
- Tumor volumes (mouse M12, study day 2): 476 mm^3
- Relative tumor volume (mouse M12, study day 2, day 0 = 100%): 53%
- Tumor volumes (mouse M12, study day 6): 427 mm^3
- Relative tumor volume (mouse M12, study day 6, day 0 = 100%): 47%
- Tumor volumes (mouse M12, study day 9): 196 mm^3
- Relative tumor volume (mouse M12, study day 9, day 0 = 100%): 23%
- Tumor volumes (mouse M12, study day 13): 82 mm^3
- Relative tumor volume (mouse M12, study day 13, day 0 = 100%): 9.1%
- Tumor volumes (mouse M12, study day 16): 109 mm^3
- Relative tumor volume (mouse M12, study day 16, day 0 = 100%): 12%
- Tumor volumes (mouse M12, study day 20): 0 mm^3
- Relative tumor volume (mouse M12, study day 20, day 0 = 100%): 0.0%
- Tumor volumes (mouse M12, study day 23): 55 mm^3
- Relative tumor volume (mouse M12, study day 23, day 0 = 100%): 6.1%
- Tumor volumes (mouse M12, study day 27): 56 mm^3
- Relative tumor volume (mouse M12, study day 27, day 0 = 100%): 6.2%
- Tumor volumes (mouse M12, study day 30): 58 mm^3
- Relative tumor volume (mouse M12, study day 30, day 0 = 100%): 6.4%
- Tumor volumes (mouse M12, study day 34): 47 mm^3
- Relative tumor volume (mouse M12, study day 34, day 0 = 100%): 5.2%
- Tumor volumes (mouse M12, study day 37): 67 mm^3
- Relative tumor volume (mouse M12, study day 37, day 0 = 100%): 7.4%
- Tumor volumes (mouse M12, study day 41): 74 mm^3
- Relative tumor volume (mouse M12, study day 41, day 0 = 100%): 8.2%
- Tumor volumes (mouse M12, study day 42): 81 mm^3
- Relative tumor volume (mouse M12, study day 42, day 0 = 100%): 9.0%
